From patent publication US8076374B2 (Eli Lilly and Company, priority 2005, dated 2011)

Biological target: cloned human glucagon receptor (Homo sapiens, UniProt P47871)
Assay: Glucagon Receptor (hGlucR) Binding Assay
Protocol: This plasmid DNA is transfected into 293 HEK cells and selected with 200 μg/mL Hygromycin.
Crude plasma membranes are prepared using cells from suspension culture. The cells are lysed on ice in hypotonic buffer containing 25 mM Tris HCL, pH 7.5, 1 mM MgCl2, DNAsel, 20 u/mL, and Roche Complete Inhibitors-without EDTA. The cell suspension is homogenized with a glass dounce homogenizer using a Teflon pestle for 25 strokes. The homogenate is centrifuged at 4 degrees C. at 1800×g for 15 mins. The supernate is collected and the pellet is resuspended in hypotonic buffer and rehomogenized. The mixture is centrifuged at 1800×g for 15 mins. The second supernate is combined with the first supernate. The combined supernates are recentrifuged at 1800×g for 15 mins to clarify. The clarified supernate is transferred to high speed tubes and centrifuged at 25000×g for 30 minutes at 4 degrees C. The membrane pellet is resuspended in homogenization buffer and stored as frozen aliquots at −80 degree C. freezer until needed.
The specific activity is 2200 Ci/mmol.
The binding buffer contains 25 mM Hepes, pH 7.4, 2.5 mM CaCl2, 1 mM MgCl2, 0.1% fatty acid free BSA, (ICN), 0.003% tween-20, and Roche Complete Inhibitors without EDTA. […] Test compounds are dissolved in DMSO and serially diluted in DMSO. […] Plates are read with a MicroBeta after 14 hours of settling time at room temp.

Chain of cloned human glucagon receptor (P47871 26-477): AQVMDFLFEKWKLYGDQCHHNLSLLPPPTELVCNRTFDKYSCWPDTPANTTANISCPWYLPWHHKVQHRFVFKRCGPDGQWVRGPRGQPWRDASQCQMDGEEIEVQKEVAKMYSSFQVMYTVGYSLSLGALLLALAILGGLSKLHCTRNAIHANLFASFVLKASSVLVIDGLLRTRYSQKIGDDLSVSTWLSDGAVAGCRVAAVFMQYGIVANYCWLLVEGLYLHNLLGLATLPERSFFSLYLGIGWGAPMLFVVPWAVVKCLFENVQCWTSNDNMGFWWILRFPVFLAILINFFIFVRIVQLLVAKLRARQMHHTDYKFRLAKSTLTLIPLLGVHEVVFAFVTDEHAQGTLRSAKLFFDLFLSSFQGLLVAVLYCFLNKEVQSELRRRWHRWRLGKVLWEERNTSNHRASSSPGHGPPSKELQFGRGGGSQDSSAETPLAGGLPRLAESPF

| SMILES | Ki [nM] |
| --- | --- |
| Cc1cc(OCC(c2ccc(C(=O)NCCC(=O)O)cc2)C(C)C)cc(C)c1-c1ccc(C(C)(C)C)cc1 (centres unmarked) | 61 |
| C=CCC(CC=C)(COc1cc(C)c(-c2ccc(C(F)(F)F)cc2)c(C)c1)c1ccc(C(=O)NCCC(=O)O)cc1 | 87 |
